Measurements from patent publication US20060148714A1, “Therapeutic peptide-based constructs” (priority 1999, published 2006).
In brackets after ≈: the same amount, converted by molar mass. Where a SMILES comes first, the peptide text is derived from it. [ ]: non-standard residue; d: D form. d1Nal = N[C@H](Cc1cccc2ccccc12)C(=O)O

What was measured:
[1] = tested on: human umbilical vein endothelial cells (HUVEC); assay type: cell-based; details: for IC50: 72 h
Experimental: Briefly, human umbilical vein endothelial cells (HUVEC) were cultured in EGM-2 medium (Clonetics Corp., San Diego, Calif.), harvested and plated onto a 96-well culture plate. After 24 hours of quiescence, the cells were co-cultured with various peptide-based constricts in the presence of growth factors for 72 hours to test their activity. Cell proliferation was quantitated by tritiated thymidine incorporation into DNA and was expressed in counts per minute (cpm).
Details of the experimental procedures were as follows: HUVEC cells were cultured in EGM-2 media from Clonetics Corp., a subsidiary of BioWhittaker, Inc., San Diego, Calif. [EGM-2 is Endothelial Cell Basal Medium-2 (EMB-2) supplemented with growth factors (hFGF-B, VEGF, IGF-1, hEGF) ascorbic acid, heparin, GA-1000 and 2% FBS), in T75 flasks until confluent (˜4-7 days). Cells were harvested by trypsinizing the cells using 0.025% trypsin/EDTA for 5 minutes. To stop the reaction, 2-5% FBS was added. The cells were centrifuged and washed 3 times using Hank's Balanced Salt Solution (HBSS) or Dulbecco's Phosphate Buffered Saline D-PBS. The pellet was then resuspended in EBM-2 supplemented with 0.1% FBS and GA-1000 was used. The cells were counted and a cell suspension was prepared at 2×10^5/mL in EBM-2 with 0.1% FBS; cells were dispensed into a 96-well flat bottomed culture plate at 0.1 mL/well (total: ˜20,000 cells/well in 0.1% FBS-EBM-2). Incubation continued at 37° C. in 5% CO2 for 20-24 hours. The next day peptide-based constructs were prepared for testing in a 96 well plate. The supernatant was aspirated from the cell-well, replaced with EBM-2 or the testing reagent at 20 μL/well. Then, 180 μL/well of 1.12% FBS-GFS were added to make a final concentration of 1% FBS-GFS in EBM-2. This aspiration and addition was done well-by-well. ^3H-thymidine (100 μCi/mL) was added at 10 μL/well (1 μCi/well, final). Incubation continued at 37° C., 5% CO2 for 72 hours. To harvest the plate, the supernatant was aspirated off from the cell-well and then 75 μL-100 μL/well of 0.025% trypsin-EDTA was added. After incubation for 8-10 minutes at room temperature in the hood, the cells were checked and 100 μL/well of 2-5% FBS-PBS was added to stop the reaction. The plate was then harvested, dried and counted using an Inotech cell harvester (Inotech Biosystems, INB-384, Sample Processing and Filter Counting System, Lansing, Mich.).

[2] = tested on: Factor Xa neutralization by ATIII/heparin complexes; experiment: Chromostrate heparin anti-Factor Xa assay (heparin neutralization); assay type: biochemical; details: absorbance at 405 nm
Experimental: A Chromostrate™ assay was used to determine the effect of peptide-based constructs, including derivatized constructs, and the effect protamine sulfate (as a positive control) on Factor Xa neutralization by ATIII/heparin complexes. The assay was conducted using a Chromostrate™ heparin anti-Factor Xa assay kit (Organon Teknika Corp., Durham, N.C.). Heparin concentration was varied so that a heparin standard curve was generated. The assay measured the potentiating effect of heparin on anti-Xa activity in vitro. Solution containing heparin is incubated in the presence of ATIII with an excess of Factor Xa, forming an ATIII-Heparin-Xa complex. The remaining Xa catalyzes the release of p-nitroaniline (pNA) from the chromogenic substrate. The release of p-nitroaniline is measured at 405 nm. The absorbance obtained in inversely porportional to the concentration of heparin in the sample.
Reagents for the assay are prepared as follows. Heparin, peptide-based constructs and protamine sulfate stocks are made in saline. Stock solutions are approximately 1 mg/mL=1 μg/μL. Factor Xa reagent and substrate reagent are reconstituted with 2.0 mL purified water. Antithrombin III (ATIII) reagent is reconstituted with 1.0 mL purified water. The assay is performed in 96 well microtiter plates. Assay components are added to the microtiter wells as follows: 12.5 μl of heparin (from 0 to 10 U/mL), 25 μl of construct or protamine sulfate, 12.5 μL of ATIII (0.5 PEU/mL), 25 μL of bovine Factor Xa (14 nKat/mL), 25 μL substrate (3 μmoles/mL). The reaction is allowed to proceed for 20 minutes and then 25 μL of 0.1 M acetic acid is added. The color reaction is quantitated on a microplate reader at 405 nm. Constructs that neutralize heparin show an increase in the absorbance at 405 nm. Protamine is used as a positive control and its activity is designated as 100%. The percent (%) heparin neutralization for each peptide construct is calculated relative to the neutralization by protamine (100%), and shown in Table IV.

[3] = tested on: bFGF-induced angiogenesis; experiment: In vivo Matrigel angiogenesis assay (hemoglobin content of excised gel); details: 10 μg peptide construct per gel; hemoglobin of gel excised ten days after s.c. injection; C57BL/6J mice
Experimental: For these experiments, peptide-based constructs according to the invention were assayed for their ability to inhibit heparin-induced angiogenesis in vivo in mice. Basement membrane matrix (Matrigel®, Becton Dickinson Labware, Mountain View, Calif.) was thawed and maintained at 4° C. and angiogenic factors were added to the gel in the liquid state generally as described in Passaniti et al., 1992, Lab. Invest. 67: 519-528. Heparin sodium (Sigma, St. Louis, Mo.) was dissolved in sterile PBS to various concentrations ranging from 1,250-10,000 U/mL, and used in these experiments at 8,000 U/mL. Human recombinant basic fibroblast growth factor (bFGF; Sigma) was reconstituted into 1. % BSA in PBS to 25 μg/mL. A volume of 2.5 μL dissolved heparin solution and 4.0 μL recombinant bFGF were added to 0.5 mL Matrigel® mixture per mouse injection. Peptide-based constructs were added to this Matrigel® mixture at varying concentrations ranging from 0.5 to 50 μg/mL (final concentration) in 10 μL/0.5 mL Matrigel® aliquot per experimental animal. Ten μL sterile PBS was substituted for peptide-based constructs in Matrigel® aliquots injected into control animals.
Female C57BL/6J mice (Jackson Laboratory, Bar Barbor, Me.) at 6-8 weeks of age (maintained under NIH guidelines) were injected subcutaneously down the dorsal midline with 0.5 mL aliquots of Matrigel® prepared as described above. Ten days after injection, the Matrigel® gels were excised and placed in Drabkin's reagent (Sigma). Total protein and hemoglobin content can be determined for the gels stored in Drabkin's reagent after mechanical homogenization of the gels. Hemoglobin concentration was measured using Sigma Procedure #525 and reagents supplied by Sigma (St. Louis, Mo.) to be used with this procedure. If desired, total protein levels are determined using a microplate assay that is commercially embodied in a kit (DC Protein Assay, Bio-Rad, Richmond, Calif.).
Gels to be used for histological staining are formalin-fixed immediately after excision from the animals rather than being placed in Drabkin's reagent. Formalin-fixed gels are embedded in Tissue-Tek O.C.T. compound (Miles, Inc., Elkhart, Ind.) for frozen sectioning. Slides of frozen sections are stained with hematoxylin and eosin (as described by Humason, 1979, Animal Tissue Techniques, 4th Ed. W.H. Feeman & Co., San Francisco, Calif., Ch. 9, pp. 111-131). The effect of peptides are detected by microscopic examination of frozen stained sections for inhibition of angiogenesis relative to Matrigel® gel slices prepared without added peptides. The extent of angiogenesis inhibition is quantitated using the normalized amounts of hemoglobin found in BPI peptide-containing gel slices.
Data are presented as the means of triplicate determinations of hemoglobin concentrations from the excised gel (ISEM) with ten mice per group.

LPS = experiment: RAW cell assay of LPS neutralization; assay type: cell-based
[4] = tested on: E. coli (J5 and 0111 B4), Staphylococcus aureus and Candida albicans; experiment: Broth and/or radial diffusion antimicrobial assays; assay type: cell-based
From the text: Assays useful for testing a variety of biological activities of BPI protein products, including BPI-derived peptides, are described in co-owned U.S. Pat. Nos. 5,733,872; 5,763,567; 5,652,332; and 5,856,438 and corresponding PCT Publication Nos. WO 94/20532 (PCT/US94/02465) and WO 95/19372 (PCT/US94/10427) and U.S. Pat. No. 5,858,974 and corresponding PCT Publications Nos. WO 96/08509 (PCT/US95/09262) and WO 97/04008 (PCT/US96/03845), incorporated herein by reference. These activities include antimicrobial (including antibacterial and antifungal), LPS binding, LPS neutralization and additional assays of heparin binding as well as heparin neutralization.

| SMILES | IC50 [1] [µg/mL] | Assay A: percent heparin neutralization relative to protamine (100%) [2] [%] | Assay B: percent heparin neutralization relative to protamine (100%) [2] [%] | % Inhibition [3] [%] | LPS neutralization activity (LPS) | antimicrobial activity [4] | IC50 values, additional assays ([1]; HUVEC proliferation, purified constructs, said to be comparable to Table II (μg/mL)) |
| --- | --- | --- | --- | --- | --- | --- | --- |
| CC[C@@H](C)[C@@H](NC(=O)[C@@H](CCCCN)NC(=O)[C@H](NC(=O)[C@@H](CO)NC(=O)CNC(=O)[C@@H](CCCCN)NC(=O)[C@@H](Cc1cccc2ccccc12)NC(=O)[C@@H](CCCCN)NC(=O)[C@@H](C)NC(=O)[C@@H](CCC(N)=O)NC(=O)[C@@H](Cc1cccc2ccccc12)NC(=O)[C@@H](CCCNC(=N)N)NC(=O)[C@@H](Cc1ccccc1)NC(=O)[C@@H](CC(C)C)NC(=O)[C@H](N)CCCCN)[C@H](C)CC)C(N)=O [XMP.394, k-l-f-r-(naph-a)-q-a-k-(naph-a)-k-g-s-i-k-i] (H-[dK][dL][dF][dR][d1Nal][dQ][dA][dK][d1Nal][dK]G[dS][dI][dK][dI]-NH2; N-terminus assumed) | 4.3 ± 0.5 (≈ 2.25 µM) | 143 | 133 | 54.6 | – | – | – |
| CC(C)C[C@@H](NC(=O)[C@H](N)CCCCN)C(=O)N[C@H](Cc1ccccc1)C(=O)N[C@H](CCCNC(=N)N)C(=O)N[C@H](Cc1cccc2ccccc12)C(=O)N[C@H](CCC(N)=O)C(=O)N[C@H](C)C(=O)N[C@H](CCCCN)C(=O)N[C@H](Cc1cccc2ccccc12)C(=O)N[C@H](CCCCN)C(=O)NCC(=O)N[C@H](CO)C(N)=O [XMP.626, k-l-f-r-(naph-a)-q-a-k-(naph-a)-k-g-s] (H-[dK][dL][dF][dR][d1Nal][dQ][dA][dK][d1Nal][dK]G[dS]-NH2) | – | 99 | 80 | – | showed activity | – | – |
| CC(C)C[C@@H](NC(=O)[C@H](N)CCCCN)C(=O)N[C@H](Cc1ccccc1)C(=O)N[C@H](CCCNC(=N)N)C(=O)N[C@H](Cc1cccc2ccccc12)C(=O)N[C@H](CCC(N)=O)C(=O)N[C@H](C)C(=O)N[C@H](CCCCN)C(=O)N[C@H](Cc1cccc2ccccc12)C(=O)N[C@H](CCCCN)C(=O)NCC(N)=O [XMP.627, k-l-f-r-(naph-a)-q-a-k-(naph-a)-k-g] (H-[dK][dL][dF][dR][d1Nal][dQ][dA][dK][d1Nal][dK]G-NH2; N-terminus assumed) | 5.8 ± 0.7 (≈ 3.95 µM) | 98 | 62 | 77.6 | – | highest antimicrobial activities | – |
| CC(C)C[C@@H](NC(=O)[C@H](N)CCCCN)C(=O)N[C@H](Cc1ccccc1)C(=O)N[C@H](CCCNC(=N)N)C(=O)N[C@H](Cc1cccc2ccccc12)C(=O)N[C@H](CCC(N)=O)C(=O)N[C@H](C)C(=O)N[C@H](CCCCN)C(=O)N[C@H](Cc1cccc2ccccc12)C(=O)N[C@H](CCCCN)C(N)=O [XMP.628, k-l-f-r-(naph-a)-q-a-k-(naph-a)-k] (H-[dK][dL][dF][dR][d1Nal][dQ][dA][dK][d1Nal][dK]-NH2) | – | 107 | 68 | – | showed activity | highest antimicrobial activities | – |
| CC(C)C[C@@H](NC(=O)[C@H](N)CCCCN)C(=O)N[C@H](Cc1ccccc1)C(=O)N[C@H](CCCNC(=N)N)C(=O)N[C@H](Cc1cccc2ccccc12)C(=O)N[C@H](CCC(N)=O)C(=O)N[C@H](C)C(=O)N[C@H](CCCCN)C(=O)N[C@H](Cc1cccc2ccccc12)C(N)=O [XMP.629, k-l-f-r-(naph-a)-q-a-k-(naph-a)] (H-[dK][dL][dF][dR][d1Nal][dQ][dA][dK][d1Nal]-NH2; N-terminus assumed) | – | 69 | 49 | 30.8 | showed activity | highest antimicrobial activities | – |
| CC(C)C[C@@H](NC(=O)[C@H](N)CCCCN)C(=O)N[C@H](Cc1ccccc1)C(=O)N[C@H](CCCNC(=N)N)C(=O)N[C@H](Cc1cccc2ccccc12)C(=O)N[C@H](CCC(N)=O)C(=O)N[C@H](C)C(=O)N[C@H](CCCCN)C(N)=O [XMP.630, k-l-f-r-(naph-a)-q-a-k] (H-[dK][dL][dF][dR][d1Nal][dQ][dA][dK]-NH2; N-terminus and C-terminus assumed) | >25 | 2.3 | 0.5 | 49.6 | – | – | > 50 |
